Paper PMC8201735 (BMC Pharmacology & Toxicology, 2021)

How the values were obtained:
subjects with T2DM [1] = assay: Ambulatory blood pressure monitoring; type: in vivo, human; conditions: for Decrease in diastolic blood pressure at nighttime, Day 13, compared to placebo (metformin alone) / Decrease in systolic blood pressure at nighttime, Day 13, compared to placebo (metformin alone): stated as magnitude of decrease
Description: The ambulatory blood pressure was monitored for […] during inpatient days (beginning Day 1 at 08.00, Day 2 at 08.00 and Day 13 at 08.00). The unit was programmed to take blood pressure readings every 10 min from 08.00 to 10.00, every 20 min from 10.00 to 22.00, and every 30 min from 22.00 to 08.00 the following morning.
Descriptive statistics were used to summarize baseline demographics, safety data, and pharmacokinetic parameters. Geometric mean and % CVb (between-subject coefficient of variation) were calculated for all pharmacokinetic parameters except tmax. Comparisons of placebo with each active dose of RE were assessed in terms of change from baseline in fasting plasma lactate acid using repeated measures analysis of covariance model. The model included terms for baseline measurement, visit, treatment and visit-by-treatment interaction. The same model was applied to change from baseline in weighted means of day-time, night-time and 0–24 h of blood pressures. Within group treatment comparison was performed using mixed model on log transformed Cmax and AUC (0-last).

subjects with T2DM [2] = conditions: RE 500 mg BID and metformin 500 mg BID for 3 days; cited from earlier work
[3] = 24 h, RE 500 mg BID + metformin, N = 14
[4] = 24 h, RE 750 mg BID + metformin, N = 14
[5] = Daytime (10 am to 8 pm), RE 500 mg BID + metformin
[6] = Daytime (10 am to 8 pm), RE 750 mg BID + metformin
[7] = Nighttime (midnight to 6 am), RE 500 mg BID + metformin
[8] = Nighttime (midnight to 6 am), RE 750 mg BID + metformin

**Q.** Which “Ambulatory diastolic BP, adjusted mean change from baseline to Day 13 vs. placebo” value (subjects with T2DM [1]; [3]) does the source give for `CCOC(=O)OC[C@H]1O[C@@H](Oc2nn(C(C)C)c(C)c2Cc2ccc(OC(C)C)cc2)[C@H](O)[C@@H](O)[C@@H]1O` [RE, remogliflozin etabonate] here?
**A.** −2.0; p = 0.256 mmHg

**Q.** And the “Ambulatory systolic BP, adjusted mean change from baseline to Day 13 vs. placebo” value (subjects with T2DM [1]; [3])?
**A.** −2.8; p = 0.303 mmHg

**Q.** And the “Ambulatory diastolic BP, adjusted mean change from baseline to Day 13 vs. placebo” value (subjects with T2DM [1]; [4])?
**A.** −3.3; p = 0.062 mmHg

**Q.** What about the “Ambulatory systolic BP, adjusted mean change from baseline to Day 13 vs. placebo” value (subjects with T2DM [1]; [4]) of the same compound?
**A.** −4.0; p = 0.131 mmHg

**Q.** What about the “Ambulatory diastolic BP, adjusted mean change from baseline to Day 13 vs. placebo” value (subjects with T2DM [1]; [5]) of the same compound?
**A.** −1.8; p = 0.461 mmHg

**Q.** And the “Ambulatory systolic BP, adjusted mean change from baseline to Day 13 vs. placebo” value (subjects with T2DM [1]; [5])?
**A.** −3.4; p = 0.291 mmHg

**Q.** What about the “Ambulatory diastolic BP, adjusted mean change from baseline to Day 13 vs. placebo” value (subjects with T2DM [1]; [6]) of the same compound?
**A.** −1.3; p = 0.586 mmHg

**Q.** What about the “Ambulatory systolic BP, adjusted mean change from baseline to Day 13 vs. placebo” value (subjects with T2DM [1]; [6]) of the same compound?
**A.** −2.4; p = 0.441 mmHg

**Q.** And the “Ambulatory diastolic BP, adjusted mean change from baseline to Day 13 vs. placebo” value (subjects with T2DM [1]; [7])?
**A.** −6.5; p = 0.006 mmHg

**Q.** What about the “Ambulatory systolic BP, adjusted mean change from baseline to Day 13 vs. placebo” value (subjects with T2DM [1]; [7]) of the same compound?
**A.** −8.4; p = 0.020 mmHg

**Q.** What about the “Ambulatory diastolic BP, adjusted mean change from baseline to Day 13 vs. placebo” value (subjects with T2DM [1]; [8]) of the same compound?
**A.** −4.8; p = 0.043 mmHg

**Q.** What about the “Ambulatory systolic BP, adjusted mean change from baseline to Day 13 vs. placebo” value (subjects with T2DM [1]; [8]) of the same compound?
**A.** −7.1; p = 0.047 mmHg

**Q.** And the “Decrease in diastolic blood pressure at nighttime, Day 13, compared to placebo (metformin alone)” value (subjects with T2DM [1]; RE 500 mg BID + metformin)?
**A.** 6.5 mmHg

**Q.** And the “Decrease in systolic blood pressure at nighttime, Day 13, compared to placebo (metformin alone)” value (subjects with T2DM [1]; RE 500 mg BID + metformin)?
**A.** 8.4 mmHg

**Q.** What about the “Decrease in diastolic blood pressure at nighttime, Day 13, compared to placebo (metformin alone)” value (subjects with T2DM [1]; RE 750 mg BID + metformin) of the same compound?
**A.** 4.8 mmHg

**Q.** And the “Decrease in systolic blood pressure at nighttime, Day 13, compared to placebo (metformin alone)” value (subjects with T2DM [1]; RE 750 mg BID + metformin)?
**A.** 7.1 mmHg

**Q.** What about the “Effect of RE on the steady-state plasma profiles of metformin” value (subjects with T2DM [2]) of the same compound?
**A.** no effect

**Q.** And the “Tolerability of concomitant administration” value (subjects with T2DM [2])?
**A.** well tolerated
